Measurements: patent US8613933B2, “Brachyury polypeptides and methods for use” (The United States of America, as represented by the …, priority 2007, dated 2013)
Peptide text beside a SMILES is read from it.

How the values were obtained:
[1] = test system: normal donor CD19+ B cells; format: cell-based, human
Experimental: (§1) Target cells were labeled with 50 μCi of ^111Indium-labeled oxyquinoline (Amersham Health, Silver Spring, Md.) for 15 minutes at room temperature. Target cells in medium containing 10% human AB serum were plated at 3×10^3 cells per well, in 96-well rounded-bottom culture plates. Labeled C1R-A2 or T2 cells were incubated with peptides at the indicated concentrations for 60 minutes at 37° C. in 5% CO2 before the addition of effector cells. No peptide was added when carcinoma cells or CD19+ B cells were used as targets. CD8+ T cells negatively isolated from T-cell cultures were used as effector cells, at various effector-to-target (E:T) cell ratios. […] Supernatants were harvested and the ^111In released was measured by gamma counting. Spontaneous release was determined by incubating the target cells with medium alone, and complete lysis by incubating the target cells with 2.5% Triton X-100. All determinations were performed in triplicate, and standard deviations were calculated. Specific lysis was calculated as follows: specific lysis (%)=[(observed release-spontaneous release)/(complete release-spontaneous release)]×100. […] Cytotoxic lysis of normal B lymphocytes was also analyzed since low expression of Brachyury was detectable in CD19+ cells isolated from various healthy donors.

T2 cells = format: cell-based, human
Experimental: as §1

HLA-A0201 molecules = target: T1, HLA-A0201 molecules (Homo sapiens, UniProt P04439, D140Y/D185E/D98H/E176V/E277Q/G131W/G231S/I119V/I121R/I166T/I218V/L300P/L318F/N151K/N90K/P208A/P217A/Q86G/Q94H/R138H/R169H/T345S); assay: HLA-A2 binding assay: HLA-A02 surface expression on T2 cells by flow cytometry; settings: 25 μM peptide, compared to positive and negative control peptides
T1 construct: the T2 (HLA-A2+) transport-deletion mutant cell line; endogenous in cells; host or cells: T2 (HLA-A2+) TAP-deficient cells
Experimental: Binding of Brachyury-specific peptides T-p1, T-p2, T-p3, and T-p4 (SEQ ID NOs: 1-4) to HLA-A0201 molecules was evaluated by flow cytometry analysis of HLA-A02 surface expression on T2 cells. T2 cells (1×10^6) in serum-free Iscove's modified Dulbecco's medium were incubated in the presence of various concentrations of each peptide, in 24-well culture plates at 37° C. with 5% CO2. After 18 hours in culture, T2 cells were harvested, washed with 1× phosphate buffered saline (PBS) (Invitrogen) and stained with 20 μl of a FITC-conjugated anti-HLA-A02-specific monoclonal antibody (MAb) (One Lambda, Inc., Canoga Park, Calif.). A FITC-conjugated IgG2a MAb (BD Biosciences, San Jose, Calif.) was used as an isotype control. […] Results were expressed as mean fluorescence intensity (MFI) collected on a log scale. […] Assuming first order kinetics, the log2 of MFI/MFI0 (MFI is the fluorescence at each time point and MFI0 the initial fluorescence at time 0) was plotted against time (minutes). The decay rate constant was calculated as the slope of the linear regression for each curve and the half-life of each peptide-MHC complex was calculated as […].
In silico-predicted epitopes were then assessed for binding to the MHC molecules in a cell-based assay. […]

CD8+ T cells = assay: IFN-γ ELISA of peptide-induced CD8+ T cells stimulated with peptide-pulsed autologous DCs; format: cell-based, human; settings: healthy donor, DCs pulsed with 25 μM peptide, three IVS, 24 hours stimulation
Source text: To generate Brachyury-specific cytotoxic T cells (CTLs), peptide-pulsed irradiated (30 Gy) DCs were used as antigen presenting cells (APCs) with autologous, non-adherent cells used as effector cells at an effector-to-APC ratio of 10:1. Cultures were maintained for three initial days in medium containing 10% human AB serum, and four additional days in the same medium supplemented with 20 U/ml of recombinant human IL-2. After a seven-day culture period, designated as an in vitro stimulation (IVS) cycle, cells were re-stimulated as described above.
After three IVS cycles, CD8+ T cells that were negatively isolated by using a CD8+ isolation kit (Miltenyi Biotec, Auburn, Calif.) were stimulated for 24 hours in the presence of peptide-pulsed autologous DCs. Culture supernatants were analyzed for the presence of IFN-γ by using an enzyme linked immunosorbant assay (ELISA) kit (Biosource International Inc., Camarillo, Calif.). Results were expressed in pg/ml.
Irradiated DCs pulsed with 25 μM of each peptide were used to stimulate autologous T cells from a healthy donor's PBMCs. […] Cytotoxic lysis of normal B lymphocytes was also analyzed since low expression of Brachyury was detectable in CD19+ cells isolated from various healthy donors.

Binding to HLA-A02 molecules (cell surface MHC stabilization, MFI) (HLA-A0201 molecules)	Compound	Cytotoxic lysis of normal B lymphocytes [1]	Lowest peptide concentration showing cytotoxic responses of T-p2 CTLs (T2 cells) [nM]	Induction of antigen-specific CTLs releasing IFN-γ upon stimulation with the specific peptide (CD8+ T cells)
–	CC(C)C[C@H](NC(=O)[C@@H](NC(=O)[C@H](CO)NC(=O)[C@@H](NC(=O)CNC(=O)[C@@H]1CCCN1C(=O)[C@H](CC(C)C)NC(=O)[C@H](CC(C)C)NC(=O)[C@@H](N)Cc1c[nH]c2ccccc12)[C@@H](C)O)[C@@H](C)O)C(=O)O [T-p2, WLLPGTSTL] (H-WLLPGTSTL-OH; N-terminus and C-terminus assumed)	No lysis was observed	1	–
highest binding to T2 cells	AMYSFLLDFV (listed as Homo sapiens) [T-p4]	–	–	–
highest binding to T2 cells	RLIASWTPV (listed as Homo sapiens) [T-p3]	–	–	induced antigen-specific CTLs able to release IFN-γ
